US9067898B1, “Isothiazole derivatives as GPR120 agonists for the treatment of type II diabetes” (Janssen Pharmaceutica NV, priority 2014, dated 2015)

Assays:
[1] = molecular target: T1, long form of human GPR120 (Homo sapiens, UniProt Q5NUL3); experiment: Human GPR120 DiscoveRx PathHunter Beta-Arrestin assay, Procedure β-arrestin A; format: cell-based; conditions: PathHunter CHO-K1 GPR120 β-Arrestin cell line, 3000 cells per well, read-out: hGPR120 β-arrestin A EC50
T1 construct: host or cells: PathHunter CHO-K1 GPR120 β-Arrestin Cell Line
T1 sequence (Q5NUL3 1-377 isoform Q5NUL3-1): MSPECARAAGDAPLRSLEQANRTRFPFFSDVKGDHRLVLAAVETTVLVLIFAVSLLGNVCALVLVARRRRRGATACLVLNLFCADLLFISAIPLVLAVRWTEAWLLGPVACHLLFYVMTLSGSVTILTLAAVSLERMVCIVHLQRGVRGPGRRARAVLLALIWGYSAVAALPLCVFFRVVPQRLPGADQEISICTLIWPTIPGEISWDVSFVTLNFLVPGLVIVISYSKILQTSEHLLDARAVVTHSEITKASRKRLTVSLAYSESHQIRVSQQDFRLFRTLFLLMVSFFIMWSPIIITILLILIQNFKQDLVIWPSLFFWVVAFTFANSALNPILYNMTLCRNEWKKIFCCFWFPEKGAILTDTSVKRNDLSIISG
T1 sequence (P32121 whole entry partner): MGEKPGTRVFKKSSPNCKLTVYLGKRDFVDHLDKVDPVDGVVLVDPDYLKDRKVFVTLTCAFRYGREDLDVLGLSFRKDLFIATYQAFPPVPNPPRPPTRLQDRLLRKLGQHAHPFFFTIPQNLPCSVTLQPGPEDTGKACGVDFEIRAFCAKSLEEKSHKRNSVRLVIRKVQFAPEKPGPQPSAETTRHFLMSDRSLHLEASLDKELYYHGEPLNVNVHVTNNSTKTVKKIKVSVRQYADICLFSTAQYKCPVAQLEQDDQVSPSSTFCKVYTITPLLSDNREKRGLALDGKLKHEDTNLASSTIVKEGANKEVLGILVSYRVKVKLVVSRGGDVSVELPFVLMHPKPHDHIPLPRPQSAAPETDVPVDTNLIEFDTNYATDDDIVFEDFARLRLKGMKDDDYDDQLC
Outline: (§1)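 PathHunter CHO-K1 β-arrestin cells expressed long-form GPR120 (Procedure A, 3000 cells/well) or short-form GPR120 (Procedure B, 5000 cells/well). Compounds were serially diluted from 25 µM and incubated 90 min at 37 °C in HBSS/20 mM HEPES/0.1% BSA, pH 7.4. Luminescence was read after 60 min detection at RT; EC50 comes from % activity versus positive control, Hill slope fixed at 1.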

[2] = molecular target: T2, short form of the GPR120 receptor (GPR120S) (Homo sapiens, UniProt Q5NUL3); experiment: Human GPR120 DiscoveRx PathHunter Beta-Arrestin assay, Procedure β-arrestin B; format: cell-based; conditions: PathHunter CHO-K1 GPR120S β-Arrestin cell line, 5000 cells/well, read-out: hGPR120 β-arrestin B EC50
T2 construct: host or cells: PathHunter CHO-K1 GPR120S β-Arrestin Cell Line
T2 sequence (Q5NUL3 whole entry): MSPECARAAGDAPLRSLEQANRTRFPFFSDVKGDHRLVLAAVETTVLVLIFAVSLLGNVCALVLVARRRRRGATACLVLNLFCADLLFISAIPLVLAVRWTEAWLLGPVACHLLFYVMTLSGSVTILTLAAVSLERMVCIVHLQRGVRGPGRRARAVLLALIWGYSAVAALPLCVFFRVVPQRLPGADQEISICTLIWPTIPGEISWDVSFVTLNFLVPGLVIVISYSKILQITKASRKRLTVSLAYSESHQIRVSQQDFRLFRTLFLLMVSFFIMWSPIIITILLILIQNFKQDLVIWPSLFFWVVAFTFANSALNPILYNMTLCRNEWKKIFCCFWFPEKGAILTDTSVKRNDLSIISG
T2 sequence (P32121 whole entry partner): as the sequence (P32121 whole entry partner) above
Outline: as §1

Row | Molecule | EC50 [1] [µM] | EC50 [2] [µM]
1 | CCc1ccc(-c2cc(F)sc2COc2ccc(CCC(=O)O)c(C)c2C)cc1 [Cpd 1, 3-(4-[[3-(4-ethylphenyl)-5-fluorothiophen-2-yl]methoxy]-2,3-dimethylphenyl)propanoic acid] | 0.218 | 0.205
2 | O=C(O)CCc1cc(F)c(OCc2c(C3CCCC3)nsc2C(F)(F)F)c(F)c1 [Cpd 71, 3-(4-[[3-cyclopentyl-5-(trifluoromethyl)-1,2-thiazol-4-yl]methoxy]-3,5-difluorophenyl)propanoic acid] | 0.278 | 0.139
3 | CC(Cc1cc(F)c(OCc2c(-c3ccc(Cl)cc3)nsc2C(F)(F)F)c(F)c1)C(=O)O (centres unmarked) [Cpd 108, 3-(4-[[3-(4-chlorophenyl)-5-(trifluoromethyl)-1,2-thiazol-4-yl]methoxy]-3,5-difluorophenyl)-2-methylpropanoic acid] | 0.261 | 0.162
4 | 3-(4-[[3-(4-ethylphenyl)-5-(trifluoromethyl)-1,2-thiazol-4-yl]methoxy]-3,5-difluorophenyl)propanoic acid [Cpd 70] | 0.097 | 0.068
5 | OCCCc1cc(F)c(OCc2c(-c3ccc4c(c3)OCO4)csc2C(F)(F)F)c(F)c1 [Cpd 37, 3-(4-((4-(benzo[d][1,3]dioxol-5-yl)-2-(trifluoromethyl)thiophen-3-yl)methoxy)-3,5-difluorophenyl)propan-1-ol] | 0.057 | 0.022
6 | Cc1c(CCC(=O)O)ccc(OCc2c(-c3ccc(Cl)cc3)nsc2C(F)(F)F)c1C [Cpd 142, 3-(4-((3-(4-chlorophenyl)-5-(trifluoromethyl)isothiazol-4-yl)methoxy)-2,3-dimethylphenyl)propanoic acid] | 0.141 | 0.1
7 | Cc1ccc(-c2nsc(C(F)(F)F)c2COc2c(F)cc(CC(C)C(=O)O)cc2F)c(F)c1 (centres unmarked) [Cpd 76, 3-(3,5-difluoro-4-[[3-(2-fluoro-4-methylphenyl)-5-(trifluoromethyl)-1,2-thiazol-4-yl]methoxy]phenyl)-2-methylpropanoic acid] |  | 0.179
8 | CCc1ccc(-c2snc(Cl)c2COc2ccc(CCC(=O)O)c(C)c2C)cc1 [Cpd 85, 3-(4-[[3-chloro-5-(4-ethylphenyl)-1,2-thiazol-4-yl]methoxy]-2,3-dimethylphenyl)propanoic acid] | 0.166 | 
9 | O=C(O)CCc1cc(F)c(OCc2c(-c3ncc(Cl)cc3F)nsc2C(F)(F)F)c(F)c1 [Cpd 153, 3-(4-((3-(5-chloro-3-fluoropyridin-2-yl)-5-(trifluoromethyl)isothiazol-4-yl)methoxy)-3,5-difluorophenyl)propanoic acid] | 0.189 | 0.104
10 | O=C(O)CCc1cc(F)c(OCc2c(-c3ccc(Cl)cc3)nsc2C(F)(F)F)c(F)c1 [Cpd 79, 3-(4-[[3-(4-chlorophenyl)-5-(trifluoromethyl)-1,2-thiazol-4-yl]methoxy]-3,5-difluorophenyl)propanoic acid] | 0.071 | 0.062
11 | CCc1cc(CCC(=O)O)ccc1OCc1c(-c2ccc(Cl)cc2)nsc1C(F)(F)F [Cpd 162, 3-(4-[[3-(4-chlorophenyl)-5-(trifluoromethyl)-1,2-thiazol-4-yl]methoxy]-3-ethylphenyl)propanoic acid] | 0.156 | 0.054
12 | Cc1c(CCC(=O)O)ccc(OCc2c(-c3ccccc3)nsc2C(F)(F)F)c1C [Cpd 134, 3-(2,3-dimethyl-4-[[3-phenyl-5-(trifluoromethyl)-1,2-thiazol-4-yl]methoxy]phenyl)propanoic acid] | 0.252 | 0.409
13 | Cc1ccc(-c2nsc(C(F)(F)F)c2COc2c(F)cc(CCC(=O)O)cc2F)c(F)c1 [Cpd 65, 3-(3,5-difluoro-4-[[3-(2-fluoro-4-methylphenyl)-5-(trifluoromethyl)-1,2-thiazol-4-yl]methoxy]phenyl)propanoic acid] | 0.168 | 0.126
14 | O=C(O)CCc1cc(F)c(OCc2c(-c3ccc(Cl)c(F)c3)nsc2C(F)(F)F)c(F)c1 [Cpd 67, 3-(4-((3-(4-chloro-3-fluorophenyl)-5-(trifluoromethyl)isothiazol-4-yl)methoxy)-3,5-difluorophenyl)propanoic acid] | 0.086 | 0.043
15 | OCCCc1ccc(OCc2c(Cl)nsc2-c2ccc(Cl)cc2)c(F)c1F [Cpd 102, 3-(4-((3-chloro-5-(4-chlorophenyl)isothiazol-4-yl)methoxy)-2,3-difluorophenyl)propan-1-ol] | 0.04 | 
16 | Cc1ccccc1-c1snc(Cl)c1COc1c(F)cc(CCC(=O)O)cc1F [Cpd 193, 3-(4-[[3-chloro-5-(2-methylphenyl)-1,2-thiazol-4-yl]methoxy]-3,5-difluorophenyl)propanoic acid] | 0.322 | 0.99
17 | Cc1c(CCC(=O)O)ccc(OCc2sc(F)cc2-c2ccc(Cl)cc2)c1C [Cpd 3, 3-(4-((3-(4-chlorophenyl)-5-fluorothiophen-2-yl)methoxy)-2,3-dimethylphenyl)propanoic acid] |  | 0.083
18 | OCCCc1cc(F)c(OCc2c(-c3ccc4c(c3)OCO4)nsc2C(F)(F)F)c(F)c1 [Cpd 93, 3-(4-[[3-(2H-1,3-benzodioxol-5-yl)-5-(trifluoromethyl)-1,2-thiazol-4-yl]methoxy]-3,5-difluorophenyl)propan-1-ol] | 0.038 | 0.027
19 | CCc1ccc(-c2nsc(C(F)(F)F)c2COc2ccc(CCC(=O)O)c(F)c2F)cc1 [Cpd 73, 3-(4-((3-(4-ethylphenyl)-5-(trifluoromethyl)isothiazol-4-yl)methoxy)-2,3-difluorophenyl)propanoic acid] | 0.134 | 
20 | Cc1c(CCC(=O)O)ccc(OCc2c(-c3ncc(Cl)cc3F)nsc2C(F)(F)F)c1C [Cpd 180, 3-(4-((3-(5-chloro-3-fluoropyridin-2-yl)-5-(trifluoromethyl)isothiazol-4-yl)methoxy)-2,3-dimethylphenyl)propanoic acid] | 0.568 | 0.294
21 | O=C(O)CCc1cc(F)c(OCc2c(-c3ccc(Cl)cc3)nsc2C(F)(F)F)c(F)c1F [Cpd 116, 3-(4-((3-(4-chlorophenyl)-5-(trifluoromethyl)isothiazol-4-yl)methoxy)-2,3,5-trifluorophenyl)propanoic acid] | 0.112 | 0.088
22 | 3-(4-[[3-(4-chlorophenyl)-5-(trifluoromethyl)-1,2-thiazol-4-yl]methoxy]-3-methylphenyl)propanoic acid [Cpd 235] | 0.431 | 0.322
23 | O=C(O)CCc1cc(F)c(OCc2c(-c3ccc(Cl)cc3F)nsc2C(F)(F)F)c(F)c1 [Cpd 74, 3-(4-((3-(4-chloro-2-fluorophenyl)-5-(trifluoromethyl)isothiazol-4-yl)methoxy)-3,5-difluorophenyl)propanoic acid] | 0.143 | 0.063
24 | OCCCc1cc(F)c(OCc2c(-c3ccc(Cl)cc3)nsc2C(F)(F)F)c(F)c1 [Cpd 100, 3-(4-[[3-(4-chlorophenyl)-5-(trifluoromethyl)-1,2-thiazol-4-yl]methoxy]-3,5-difluorophenyl)propan-1-ol] | 0.097 | 
25 | OCC#Cc1cc(F)c(OCc2c(-c3ccc(Cl)cc3)nsc2C(F)(F)F)c(F)c1 [Cpd 213, 3-(4-[[3-(4-chlorophenyl)-5-(trifluoromethyl)-1,2-thiazol-4-yl]methoxy]-3,5-difluorophenyl)prop-2-yn-1-ol] | 0.059 | 0.087
26 | O=C(O)CCc1c(F)c(F)c(OCc2c(-c3ccc(Cl)cc3)nsc2C(F)(F)F)c(F)c1F [Cpd 152, 3-(4-((3-(4-chlorophenyl)-5-(trifluoromethyl)isothiazol-4-yl)methoxy)-2,3,5,6-tetrafluorophenyl)propanoic acid] | 0.183 | 0.183
27 | O=C(O)CCc1cc(F)c(OCc2c(-c3ccc(Cl)c(F)c3)nsc2C(F)(F)F)c(F)c1F [Cpd 138, 3-(4-((3-(4-chloro-3-fluorophenyl)-5-(trifluoromethyl)isothiazol-4-yl)methoxy)-2,3,5-trifluorophenyl)propanoic acid] | 0.114 | 0.161
28 | 3-(4-[[3-(4-ethylphenyl)-5-(trifluoromethyl)-1,2-thiazol-4-yl]methoxy]-1-benzothiophen-7-yl)propanoic acid [Cpd 92] | 0.028 | 0.031
